Data published in patent publication US20080262080A1, “Allergy Suppressive Agent” (KYUSHU UNIVERSITY, NATIONAL UNIVERSITY CORPORATION, priority 2004, published 2008).

Test system: FcεRI α- and γ-chains
Experiment: Expression levels of the proteins constituting FcεRI (α- and γ-chains) in KU812 cells, immunoprecipitation and blotting
Assay type: cell-based, human
Conditions: serum-free, 6 hours, β-actin control
Procedure: The expression of each of the FcεRI α- and γ-chains was detected by collecting cells having been incubated by adding chrysin, lysing the cells, conducting immunoprecipitation, subjecting the immunoprecipitate to DS-PAGE and then blotting. β-Actin was employed as a control.
KU812 cells (1×10^6 cells/mL) were incubated under serum-free conditions in RPMI 1640 medium, to which chrysin had been added, for 6 hours. After incubating, the cells were washed with PBS once and then lysed by shaking together with Lysis buffer (composition: 50 mM Tris-HCl pH 7.5, 1% Triton X-100, 150 mM NACl, 1 mM EDTA, 50 mM NaF, 30 mM Na4P2O7, 1 mM PMSF, 2 μg/mL aprotinin, 1 mM pervandate) at 4° C. for 30 min. Subsequently, the mixture was centrifuged at 12,000×g for 10 min at 4° C. to precipitate insoluble matters. The supernatant was collected and proteins were quantified. The samples were diluted with Lysis buffer so that all of them had the same protein concentration, thereby giving lysate samples.
Protein A Sepharose beads (Amersham Pharmacia Biotech) were shaken in Lysis buffer (composition: 50 mM Tris-HCl pH 7.5, 150 mM NACl, 1% Triton X-100, 1 mM EDTA, 50 mM NaF, 30 mM Na4P2O7, 1 mM PMSF, 2 μg/mL aprotinin), to which CRA-1 antibody had been added to give a final concentration of 1 μg/mL, for 2 to 4 hours at 4° C. so as to allow the beads to adsorb CRA-1 antibody. […]

O=c1cc(-c2ccccc2)oc2cc(O)cc(O)c12 [Chrysin, 5,7-dihydroxyflavone]
expression of the proteins constituting FcεRI (α- and γ-chains): suppressive effect
